Columns and labels:
Type in all cases: in vivo
Lolium multiflorum Lam. = assay: Test Example 4: herbicidal effect by application to foliage (diluvial soil, plastic box); details: Application herbicide amount 320 g/ha; foliage application
How it was run: (§1)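 Seeds sown in sterilized diluvial soil, covered ~1.5 cm, grown 14 days in greenhouse at 25° C. to 30° C. Emulsion formulation diluted in water to set rate (g/ha) and sprayed onto stems and leaves. Effect scored visually 3 weeks later on 0–5 scale (5 = ≥90% herbicidal ratio, 0 = ≤5%).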

[1] = system: Echinochloa crus-galli var. crus-galli; assay: as above; details: Application herbicide amount 320 g/ha; foliage application
How it was run: as §1

Avena fatua = assay: as above; details: Application herbicide amount 320 g/ha; foliage application
How it was run: as §1

Abutilon theophrasti = assay: as above; details: Application herbicide amount 320 g/ha; foliage application
How it was run: as §1

Digitaria ciliaris = assay: as above; details: Application herbicide amount 320 g/ha; foliage application
How it was run: as §1

Chenopodium album = assay: as above; details: Application herbicide amount 320 g/ha; foliage application
How it was run: as §1

Stellaria media = assay: as above; details: Application herbicide amount 320 g/ha; foliage application
How it was run: as §1

Amaranthus retroflexus = assay: as above; details: Application herbicide amount 320 g/ha; foliage application
How it was run: as §1

Setaria viridis = assay: as above; details: Application herbicide amount 320 g/ha; foliage application
How it was run: as §1

Apera spica-venti. = assay: as above; details: Application herbicide amount 320 g/ha; foliage application
How it was run: as §1

Veronica persica = assay: as above; details: Application herbicide amount 320 g/ha; foliage application
How it was run: as §1

Galium spurium = assay: as above; details: Application herbicide amount 320 g/ha; foliage application
How it was run: as §1

Alopecurus myosuroides = assay: as above; details: Application herbicide amount 320 g/ha; foliage application
How it was run: as §1

[2] = system: transplanted Oryza sativa; assay: Test Example 1: effect on crop, application before weed generation in submerged conditions; details: Application herbicide amount 320 g/ha; Seventeenth Table
How it was run: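 Pre-emergence water-surface application under 4 cm flooding, same day as sowing, with rice transplanted at 2.5 leaf stage. Dose given as g/ha. Plants grown at 25° C. to 30° C. and rated three weeks later on a 0 (≤5%) to 5 (≥90%) herbicidal-ratio scale.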

Glycine max = assay: Test Example 4: effect on crop by application to foliage (diluvial soil, plastic box); details: Application herbicide amount 320 g/ha; foliage application
How it was run: as §1

Zea mays = assay: as above; details: Application herbicide amount 320 g/ha; foliage application
How it was run: as §1

[3] = system: Beta vulgaris ssp. vulgaris; assay: as above; details: Application herbicide amount 320 g/ha; foliage application
How it was run: as §1

[4] = system: directly sowed Oryza sativa; assay: as above; details: Application herbicide amount 320 g/ha; foliage application
How it was run: as §1

Brassica campestris L. = assay: as above; details: Application herbicide amount 320 g/ha; foliage application
How it was run: as §1

Triticum aestivum = assay: as above; details: Application herbicide amount 320 g/ha; foliage application
How it was run: as §1

Compound	K (Lolium multiflorum Lam.) herbicidal effect grade (Lolium multiflorum Lam.)	H (Echinochloa crus-galli var. crus-galli) herbicidal effect grade [1]	I (Avena fatua) herbicidal effect grade (Avena fatua)	M (Abutilon theophrasti) herbicidal effect grade (Abutilon theophrasti)	F (Digitaria ciliaris) herbicidal effect grade (Digitaria ciliaris)	O (Chenopodium album) herbicidal effect grade (Chenopodium album)	P (Stellaria media) herbicidal effect grade (Stellaria media)	N (Amaranthus retroflexus) herbicidal effect grade (Amaranthus retroflexus)	G (Setaria viridis) herbicidal effect grade (Setaria viridis)	L (Apera spica-venti.) herbicidal effect grade (Apera spica-venti.)	R (Veronica persica) herbicidal effect grade (Veronica persica)	Q (Galium spurium) herbicidal effect grade (Galium spurium)	J (Alopecurus myosuroides) herbicidal effect grade (Alopecurus myosuroides)	a: transplanted Oryza sativa (effect on crop grade) [2]	d (Glycine max) effect on crop grade (Glycine max)	c (Zea mays) effect on crop grade (Zea mays)	f (Beta vulgaris ssp. vulgaris) effect on crop grade [3]	b (directly sowed Oryza sativa) effect on crop grade [4]	g (Brassica campestris L.) effect on crop grade (Brassica campestris L.)	e (Triticum aestivum) effect on crop grade (Triticum aestivum)
Cc1nnc(NC(=O)c2ccc(C(F)(F)F)n3c(SCc4ccccc4)nnc23)o1 [1-113]	0 (Herbicidal ratio of 5% or less (almost no effect))	2 (Herbicidal ratio of 20% or more and less than 40%)	0 (Herbicidal ratio of 5% or less (almost no effect))	1 (Herbicidal ratio of 5% or more and less than 20%)	1 (Herbicidal ratio of 5% or more and less than 20%)	5 (Herbicidal ratio of 90% or more (almost completely withered))	4 (Herbicidal ratio of 70% or more and less than 90%)	3 (Herbicidal ratio of 40% or more and less than 70%)	0 (Herbicidal ratio of 5% or less (almost no effect))	0 (Herbicidal ratio of 5% or less (almost no effect))	3 (Herbicidal ratio of 40% or more and less than 70%)	0 (Herbicidal ratio of 5% or less (almost no effect))	0 (Herbicidal ratio of 5% or less (almost no effect))	0 (Herbicidal ratio of 5% or less (almost no effect))	0 (Herbicidal ratio of 5% or less (almost no effect))	0 (Herbicidal ratio of 5% or less (almost no effect))	3 (Herbicidal ratio of 40% or more and less than 70%)	0 (Herbicidal ratio of 5% or less (almost no effect))	0 (Herbicidal ratio of 5% or less (almost no effect))	0 (Herbicidal ratio of 5% or less (almost no effect))
COc1ccc(CSc2nnc3c(C(=O)Nc4nnc(C)o4)ccc(C(F)(F)F)n23)cc1 [1-114]	0 (Herbicidal ratio of 5% or less (almost no effect))	3 (Herbicidal ratio of 40% or more and less than 70%)	0 (Herbicidal ratio of 5% or less (almost no effect))	2 (Herbicidal ratio of 20% or more and less than 40%)	1 (Herbicidal ratio of 5% or more and less than 20%)	5 (Herbicidal ratio of 90% or more (almost completely withered))	4 (Herbicidal ratio of 70% or more and less than 90%)	3 (Herbicidal ratio of 40% or more and less than 70%)	0 (Herbicidal ratio of 5% or less (almost no effect))	0 (Herbicidal ratio of 5% or less (almost no effect))	3 (Herbicidal ratio of 40% or more and less than 70%)	1 (Herbicidal ratio of 5% or more and less than 20%)	0 (Herbicidal ratio of 5% or less (almost no effect))	0 (Herbicidal ratio of 5% or less (almost no effect))	0 (Herbicidal ratio of 5% or less (almost no effect))	0 (Herbicidal ratio of 5% or less (almost no effect))	4 (Herbicidal ratio of 70% or more and less than 90%)	0 (Herbicidal ratio of 5% or less (almost no effect))	0 (Herbicidal ratio of 5% or less (almost no effect))	0 (Herbicidal ratio of 5% or less (almost no effect))
Cc1nnc(NC(=O)c2ccc(C(F)(F)F)n3c(SCC4CC4)nnc23)o1 [1-115]	1 (Herbicidal ratio of 5% or more and less than 20%)	5 (Herbicidal ratio of 90% or more (almost completely withered))	2 (Herbicidal ratio of 20% or more and less than 40%)	3 (Herbicidal ratio of 40% or more and less than 70%)	5 (Herbicidal ratio of 90% or more (almost completely withered))	5 (Herbicidal ratio of 90% or more (almost completely withered))	4 (Herbicidal ratio of 70% or more and less than 90%)	4 (Herbicidal ratio of 70% or more and less than 90%)	5 (Herbicidal ratio of 90% or more (almost completely withered))	2 (Herbicidal ratio of 20% or more and less than 40%)	4 (Herbicidal ratio of 70% or more and less than 90%)	3 (Herbicidal ratio of 40% or more and less than 70%)	2 (Herbicidal ratio of 20% or more and less than 40%)	0 (Herbicidal ratio of 5% or less (almost no effect))	2 (Herbicidal ratio of 20% or more and less than 40%)	0 (Herbicidal ratio of 5% or less (almost no effect))	5 (Herbicidal ratio of 90% or more (almost completely withered))	0 (Herbicidal ratio of 5% or less (almost no effect))	1 (Herbicidal ratio of 5% or more and less than 20%)	2 (Herbicidal ratio of 20% or more and less than 40%)
Cc1nnc(NC(=O)c2ccc(C(F)(F)F)n3c(SCC4CCCO4)nnc23)o1 (centres unmarked) [1-116]	1 (Herbicidal ratio of 5% or more and less than 20%)	5 (Herbicidal ratio of 90% or more (almost completely withered))	3 (Herbicidal ratio of 40% or more and less than 70%)	4 (Herbicidal ratio of 70% or more and less than 90%)	5 (Herbicidal ratio of 90% or more (almost completely withered))	5 (Herbicidal ratio of 90% or more (almost completely withered))	5 (Herbicidal ratio of 90% or more (almost completely withered))	4 (Herbicidal ratio of 70% or more and less than 90%)	4 (Herbicidal ratio of 70% or more and less than 90%)	1 (Herbicidal ratio of 5% or more and less than 20%)	4 (Herbicidal ratio of 70% or more and less than 90%)	3 (Herbicidal ratio of 40% or more and less than 70%)	1 (Herbicidal ratio of 5% or more and less than 20%)	0 (Herbicidal ratio of 5% or less (almost no effect))	3 (Herbicidal ratio of 40% or more and less than 70%)	0 (Herbicidal ratio of 5% or less (almost no effect))	5 (Herbicidal ratio of 90% or more (almost completely withered))	0 (Herbicidal ratio of 5% or less (almost no effect))	4 (Herbicidal ratio of 70% or more and less than 90%)	2 (Herbicidal ratio of 20% or more and less than 40%)

— patent US9708314B2, “Heterocyclic amide compound” (NISSAN CHEMICAL INDUSTRIES, LTD., priority 2013, dated 2017)
